Source: PMC7466821 (Investigational new drugs, 2017)
Values joined by “and” are separate entries in the source; they are usually repeats but may differ in a detail not shown here. Identical values can stand only once.

Tests used:
[1] = tested on: patients with locally advanced or metastatic SCLC, ovarian cancer or cervical cancer; assay: Phase Ib Part 1: DLT evaluation and RP2D determination; type: in vivo, human; settings: IV over 30 min days 1, 8, 15, 22 every 28 days; topotecan 4 mg/m^2 days 1, 8, 15
[2] = tested on: patients with advanced solid tumors; settings: cited from earlier work
[3] = ME-344 plasma pharmacokinetics, Part 1 cycle 1, noncompartmental; settings: ME-344 10 mg/kg IV over 30 min with topotecan, 13 patients, arithmetic mean
[4] = in vivo
[5] = tested on: leukemia xenograft models; settings: cited from earlier work
[6] = tested on: leukemia and lung cancer cell lines; settings: cited from earlier work
[7] = tested on: patients with locally advanced or metastatic SCLC, ovarian and cervical cancers; settings: in vivo
patients = settings: topotecan monotherapy; cited from earlier work

recommended phase II dose (RP2D) of ME-344 in combination with topotecan [1] [mg/kg]	t1/2 (terminal half-life) [3]	end-of-infusion concentration on Day 15 lower than on Day 1 [4]	SMILES	doses at which DLT (grade 3 or higher peripheral neuropathy) was observed ([2]; IV weekly)	recommended phase II dose (RP2D), single agent ([2]; IV weekly) [mg/kg]	duration of prolonged stable disease [2]	patients with prolonged stable disease [2] [patients]	duration of partial response ([2]; single patient with SCLC) [weeks]	anti-tumor activity [5]	cytotoxicity in vitro [6]	patients with SAE related to ME-344 (grade 3 diarrhea) [7] [patient]	neurotoxicity ([7]; iv, 10 mg/kg)	grade 3/4 hematologic toxicity rate (patients) [%]	SAEs related to topotecan in the additional patients ([7]; human) [SAEs]	additional patients with SAEs related to topotecan ([7]; human) [patients]
10	5.3 h and 5.301 h	approximately 27%	Cc1c(O)ccc2c1OC[C@@H](c1ccc(O)cc1)[C@H]2c1ccc(O)cc1 [ME-344]	15 to 20 mg/kg and > 10 mg/kg	10	31–52 weeks	5	52	demonstrates anti-tumor activity	cytotoxic	1	neurotoxicity was not observed	–	–	–
–	–	–	CC[C@@]1(O)C(=O)OCc2c1cc1n(c2=O)Cc2cc3c(CN(C)C)c(O)ccc3nc2-1 [topotecan, reference compound]	–	–	–	–	–	–	–	–	–	16.7	6	5
